Like-named read-outs stand apart in the source and are kept apart here.
Molecular target: SIK2 (Homo sapiens, UniProt Q9H0K1)
Assay: SIK2 Enzymatic Assay High Version 2 (High ATP)
Type: biochemical
Experimental: All steps were performed at room temperature. Compounds were pre-plated onto an assay plate using an Echo acoustic dispenser (Labcyte, E550 or E555) at 80 nL per well. Enzyme prepared in assay buffer at 6 nM (2× final concentration) was added at 4 μL per well using the Multidrop Combi (Thermo Fisher—used for all additions in this assay) to the assay plate, spun for 1 min at 1000 rpm (Allegra 6KR Beckman Coulter centrifuge), and incubated with compound for 30 minutes. Assay buffer containing 6 mM ATP and 400 μM HDAC5tide (2× of final concentration for each substrate) was added at 4 μL per well to the assay plate and then spun as above and incubated for 2 hours. […] ADP-Glo Max Reagent (prepared and aliquoted as per manufacturer instructions) was then added at 8 μL per well, spun and incubated for 2 hours. ADP-Glo Max Detection (prepared and aliquoted as per manufacturer instructions) was added at 8 μL per well to the assay plate, which was spun and incubated for 1 hour. The plate is then read on the Pherastar (BMG Labtech) using a luminescence read. Gain is set between 2200-2500.

[1] = enzyme 6 nM, 6 mM ATP and 400 μM HDAC5tide (each 2× final concentration), 30 minutes pre-incubation, 2 hours, ADP-Glo Max luminescence, read-out: SIK2 high ATP IC50 (μM) (Test Example 2)

Chain of SIK2 (Q9H0K1 whole entry, species assumed): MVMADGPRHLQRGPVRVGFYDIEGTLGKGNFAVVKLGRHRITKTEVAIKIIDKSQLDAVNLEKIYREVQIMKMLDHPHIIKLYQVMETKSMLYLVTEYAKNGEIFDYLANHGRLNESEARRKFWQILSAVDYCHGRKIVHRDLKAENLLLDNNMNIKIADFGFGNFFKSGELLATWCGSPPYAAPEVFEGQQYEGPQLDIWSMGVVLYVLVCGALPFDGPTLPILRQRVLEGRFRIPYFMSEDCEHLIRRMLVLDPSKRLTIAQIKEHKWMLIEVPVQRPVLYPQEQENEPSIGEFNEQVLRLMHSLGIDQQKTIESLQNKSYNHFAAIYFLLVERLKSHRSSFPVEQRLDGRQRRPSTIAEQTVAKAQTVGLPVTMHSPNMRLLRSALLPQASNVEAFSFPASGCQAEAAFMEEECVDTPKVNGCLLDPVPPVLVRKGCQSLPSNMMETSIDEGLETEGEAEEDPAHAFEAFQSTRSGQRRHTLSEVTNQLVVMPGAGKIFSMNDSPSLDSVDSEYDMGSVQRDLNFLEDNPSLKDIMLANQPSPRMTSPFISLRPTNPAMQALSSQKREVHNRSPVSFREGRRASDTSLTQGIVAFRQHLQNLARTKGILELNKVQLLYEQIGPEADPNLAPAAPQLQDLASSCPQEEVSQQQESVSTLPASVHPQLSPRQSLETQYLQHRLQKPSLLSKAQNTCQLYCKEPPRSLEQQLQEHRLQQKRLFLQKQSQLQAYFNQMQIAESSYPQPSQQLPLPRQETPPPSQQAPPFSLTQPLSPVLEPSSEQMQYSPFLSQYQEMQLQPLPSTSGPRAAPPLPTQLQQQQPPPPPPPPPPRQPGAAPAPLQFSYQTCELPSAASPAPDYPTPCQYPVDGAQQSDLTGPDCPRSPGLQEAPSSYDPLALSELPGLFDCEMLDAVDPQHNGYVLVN

IC50 [1] [µM] | Structure (SMILES) | IC50 [µM]
 | Cc1cc(-c2ccn3nc(Nc4cn(C)nc4F)cc3c2)c(O[C@H]2C[C@H]3COC[C@@H](C2)N3C)cn1 [Example 412, N-(3-fluoro-1-methyl-pyrazol-4-yl)-5-[2-methyl-5-[[(1S,5R,7s)-9-methyl-3-oxa-9-azabicyclo[3.3.1]nonan-7-yl]oxy]-4-pyridyl]pyrazolo[1,5-a]pyridin-2-amine] | 0.000883
0.00119 | Cc1cc(Nc2cc3cc(-c4cc(OC(F)F)ncc4OC[C@H]4CC(=O)NC4(C)C)ccn3n2)nc(C)n1 (single isomer, unassigned) [Example 739, (*S)-4-[[6-(difluoromethoxy)-4-[2-[(2,6-dimethylpyrimidin-4-yl)amino]pyrazolo[1,5-a]pyridin-5-yl]-3-pyridyl]oxymethyl]-5,5-dimethyl-pyrrolidin-2-one] | 
0.063 | CNc1nc(C)cc(Nc2cc3cc(-c4cc(O)ncc4OCC(C)(C)C#N)ccn3n2)n1 [Example 674, 3-[[6-hydroxy-4-[2-[[6-methyl-2-(methylamino)pyrimidin-4-yl]amino]pyrazolo[1,5-a]pyridin-5-yl]-3-pyridyl]oxy]-2,2-dimethyl-propanenitrile] | 
 | Cc1cc(-c2ccn3nc(Nc4ccc(C)nn4)cc3c2)c(O[C@@H]2[C@@H]3CO[C@H]2CN3)cn1 [Example 523, 5-[2-methyl-5-[[(1S,4S,7R)-2-oxa-5-azabicyclo[2.2.1]heptan-7-yl]oxy]-4-pyridyl]-N-(6-methylpyridazin-3-yl)pyrazolo[1,5-a]pyridin-2-amine] | 0.00462
0.00153 | Cc1cc(-c2ccn3nc(Nc4cc(C)c(=O)n(C)n4)cc3c2)c(OCC(C)(C)C#N)cn1 [Example 269, 3-[[4-[2-[(1,5-dimethyl-6-oxo-pyridazin-3-yl)amino]pyrazolo[1,5-a]pyridin-5-yl]-6-methyl-3-pyridyl]oxy]-2,2-dimethyl-propanenitrile] | 
 | Cc1cnc(Nc2cc3cc(-c4cc(C)ncc4O[C@H]4C[C@H]5COC[C@@H](C4)N5)ccn3n2)cn1 [Example 381, 5-[2-methyl-5-[[(1S,5R,7s)-3-oxa-9-azabicyclo[3.3.1]nonan-7-yl]oxy]-4-pyridyl]-N-(5-methylpyrazin-2-yl)pyrazolo[1,5-a]pyridin-2-amine] | < 0.000847
0.0444 | Cc1cc(-c2ccn3nc(NC(=O)C4CC4)cc3c2)c(OCC(C)(N)C(F)(F)F)cn1 (single isomer, unassigned) [Example 160, (*S)—N-[5-[5-(2-amino-3,3,3-trifluoro-2-methyl-propoxy)-2-methyl-4-pyridyl]pyrazolo[1,5-a]pyridin-2-yl]cyclopropanecarboxamide] | 
0.00126 | Cc1cc(-c2ccn3nc(Nc4cc(C)c(=O)n(C)n4)cc3c2)c(O[C@H]2CC[C@H](O)CC2)cn1 [Example 226, 6-((5-(5-(((1r,4r)-4-hydroxycyclohexyl)oxy)-2-methylpyridin-4-yl)pyrazolo[1,5-a]pyridin-2-yl)amino)-2,4-dimethylpyridazin-3(2H)-one] | 
 | Cc1cc(-c2ccn3nc(NC(=O)C4CC4)cc3c2)c(OC[C@H]2CCN2C2CC2)cn1 [Example 574, N-[5-[5-[[(2R)-1-cyclopropylazetidin-2-yl]methoxy]-2-methyl-4-pyridyl]pyrazolo[1,5-a]pyridin-2-yl]cyclopropanecarboxamide] | 0.0804
 | Cc1cc(-c2ccn3nc(Nc4cc(C(F)(F)F)ccn4)cc3c2)c(O[C@H]2C[C@H]3COC[C@@H](C2)N3)cn1 [Example 378, 5-[2-methyl-5-[[(1S,5R,7s)-3-oxa-9-azabicyclo[3.3.1]nonan-7-yl]oxy]-4-pyridyl]-N-[4-(trifluoromethyl)-2-pyridyl]pyrazolo[1,5-a]pyridin-2-amine] | < 0.000847
 | CNC(=O)c1ccnc(Nc2cc3cc(-c4cc(C)ncc4O[C@H]4C[C@H]5COC[C@@H](C4)N5C(=O)C4CC4)ccn3n2)c1 [Example 634, 2-((5-(5-(((1R,5S,7s)-9-(cyclopropanecarbonyl)-3-oxa-9-azabicyclo[3.3.1]nonan-7-yl)oxy)-2-methylpyridin-4-yl)pyrazolo[1,5-a]pyridin-2-yl)amino)-N-methylisonicotinamide] | 0.363
0.000974 | Cc1cncc(Nc2cc3cc(-c4cc(OC(F)F)ncc4OCC(C)(C)C#N)ccn3n2)n1 [Example 683, 3-[[6-(difluoromethoxy)-4-[2-[(6-methylpyrazin-2-yl)amino]pyrazolo[1,5-a]pyridin-5-yl]-3-pyridyl]oxy]-2,2-dimethyl-propanenitrile] | 
0.1 | Cc1cc(-c2ccn3nc(Nc4cnc(C(C)(C)C)cn4)cc3c2)c(OCC(C)(C)O)cn1 [Example 613, 1-[[4-[2-[(5-tert-butylpyrazin-2-yl)amino]pyrazolo[1,5-a]pyridin-5-yl]-6-methyl-3-pyridyl]oxy]-2-methyl-propan-2-ol] | 
 | Cc1cc(-c2ccn3nc(NC(=O)C4CC4)cc3c2)c(O[C@H]2C[C@@H](N)C2)cn1 [Example 464, N-(5-(5-((1s,3s)-3-aminocyclobutoxy)-2-methylpyridin-4-yl)pyrazolo[1,5-a]pyridin-2-yl)cyclopropanecarboxamide] | 0.0116
0.0188 | Cc1cc(-c2ccn3nc(Nc4cc(C)c(=O)n(CCOC(F)F)n4)cc3c2)c(OCC(C)(C)O)cn1 [Example 284, 2-[2-(difluoromethoxy)ethyl]-6-[[5-[5-(2-hydroxy-2-methyl-propoxy)-2-methyl-4-pyridyl]pyrazolo[1,5-a]pyridin-2-yl]amino]-4-methyl-pyridazin-3-one] | 
0.00167 | CNc1nc(C)cc(Nc2cc3cc(-c4cc(C)ncc4OCC(C)(C)O)ccn3n2)n1 [Example 228, 2-methyl-1-[[6-methyl-4-[2-[[6-methyl-2-(methylamino)pyrimidin-4-yl]amino]pyrazolo[1,5-a]pyridin-5-yl]-3-pyridyl]oxy]propan-2-ol] | 
 | Cc1cc(-c2ccn3nc(Nc4cc(F)n(C)n4)cc3c2)c(O[C@H]2C[C@H]3COC[C@@H](C2)N3C)cn1 [Example 120, N-(5-fluoro-1-methyl-1H-pyrazol-3-yl)-5-(2-methyl-5-(((1R,5S,7s)-9-methyl-3-oxa-9-azabicyclo[3.3.1]nonan-7-yl)oxy)pyridin-4-yl)pyrazolo[1,5-a]pyridin-2-amine] | < 0.000847
0.00832 | Cc1cc(-c2ccn3nc(Nc4cc(C)nc(C)n4)cc3c2)c(OC2CCC(S(C)(=O)=O)CC2)cn1 (centres unmarked) [Example 551, N-(2,6-dimethylpyrimidin-4-yl)-5-[2-methyl-5-(4-methylsulfonylcyclohexoxy)-4-pyridyl]pyrazolo[1,5-a]pyridin-2-amine] | 
0.0377 | Cc1cc(-c2ccn3nc(Nc4cc(C)nc(C)n4)cc3c2)c(OC[C@@H]2CCC3(CCCC3)O2)cn1 (single isomer, unassigned) [Example 230, (*S)—N-(2,6-dimethylpyrimidin-4-yl)-5-[2-methyl-5-(9-oxaspiro[4.4]nonan-8-ylmethoxy)-4-pyridyl]pyrazolo[1,5-a]pyridin-2-amine] | 
0.00366 | Cc1cc(-c2ccn3nc(Nc4cc(C)c(=O)n(CC5CC5)n4)cc3c2)c(OCC(C)(C)O)cn1 [Example 265, 2-(cyclopropylmethyl)-6-[[5-[5-(2-hydroxy-2-methyl-propoxy)-2-methyl-4-pyridyl]pyrazolo[1,5-a]pyridin-2-yl]amino]-4-methyl-pyridazin-3-one] | 
 | Cc1cc(-c2ccn3nc(Nc4cc(C(F)(F)F)nn4C)cc3c2)c(O[C@H]2C[C@H]3COC[C@@H](C2)N3)cn1 [Example 403, 5-(5-(((1R,5S,7s)-3-oxa-9-azabicyclo[3.3.1]nonan-7-yl)oxy)-2-methylpyridin-4-yl)-N-(1-methyl-3-(trifluoromethyl)-1H-pyrazol-5-yl)pyrazolo[1,5-a]pyridin-2-amine] | 0.0143
 | Cc1cc(-c2ccn3nc(Nc4cccnn4)cc3c2)c(O[C@H]2C[C@H]3COC[C@@H](C2)N3)cn1 [Example 394, 5-[2-methyl-5-[[(1R,5S,7s)-3-oxa-9-azabicyclo[3.3.1]nonan-7-yl]oxy]-4-pyridyl]-N-pyridazin-3-yl-pyrazolo[1,5-a]pyridin-2-amine] | < 0.000847
0.0245 | Cc1cc(-c2ccn3nc(Nc4cc(C)nc(C)n4)cc3c2)c(OC[C@]2(C)CCCO2)cn1 (single isomer, unassigned) [Example 232, (*S)—N-(2,6-dimethylpyrimidin-4-yl)-5-[2-methyl-5-[(2-methyltetrahydrofuran-2-yl)methoxy]-4-pyridyl]pyrazolo[1,5-a]pyridin-2-amine] | 
 | Cc1cc(-c2ccn3nc(NC(=O)C4CC4)cc3c2)c(O[C@H]2[C@@H]3CN(C)[C@H]2CO3)cn1 [Example 164, N-(5-(2-methyl-5-(((1S,4S,7R)-5-methyl-2-oxa-5-azabicyclo[2.2.1]heptan-7-yl)oxy)pyridin-4-yl)pyrazolo[1,5-a]pyridin-2-yl)cyclopropanecarboxamide] | 0.218
0.00568 | Cc1ccc(Nc2cc3cc(-c4cc(C)ncc4OC[C@@H]4CNCCO4)ccn3n2)nc1 [Example 425, 5-[2-methyl-5-[[(2S)-morpholin-2-yl]methoxy]-4-pyridyl]-N-(5-methyl-2-pyridyl)pyrazolo[1,5-a]pyridin-2-amine] | 

Structure (SMILES) | IC50 [1] [µM] | IC50 [µM]
Cc1cc(-c2ccn3nc(Nc4cccnn4)cc3c2)c(O[C@H]2C[C@H](N)C2)cn1 [Example 520, 5-[5-(3-aminocyclobutoxy)-2-methyl-4-pyridyl]-N-pyridazin-3-yl-pyrazolo[1,5-a]pyridin-2-amine] | 0.0445 | 
